Measured values reported in publication PMC9289885, “Antimicrobial Peptides against Multidrug-Resistant Pseudomonas aeruginosa Biofilm from Cystic Fibrosis Patients” (Journal of Medicinal Chemistry, 2022).
Where two headings read alike, the source gives them in different places.

Tests used:
[1] = tested on: P. aeruginosa clinical CF isolates biofilm; assay type: cell-based, Pseudomonas aeruginosa; settings: 24 h
Procedure: The biofilm formation assay was performed as described for the MIC assay with some alterations and used either BM2 or CF patient sputum diluted 10-fold with BM2. Plates containing peptides at serial dilutions and bacteria were incubated for 24 h at 37 °C without agitation to allow biofilm formation. Unattached bacteria were then washed from plates, and the plates stained with 0.1% CV, followed by absorbance measurements at OD590 using a microplate auto reader. Data are presented as a percentage of the biofilm biomass compared to biofilm formed by untreated bacteria ± the standard error.

[2] = tested on: P. aeruginosa CF patient isolates and PAO1; assay type: cell-based, Pseudomonas aeruginosa; settings: PAO1, 24 h
Procedure: The MIC of the peptides was tested as previously described with minor adjustments.[50],[51] Briefly, peptide activity was examined in sterile 96-well polystyrene plates (Bar-Naor BN36010096D). Overnight cultures of P. aeruginosa were washed and resuspended in a BM2 medium. Aliquots of 50 μL of suspended bacteria (1 × 10^6 CFU/mL) were added to 50 μL of BM2 medium containing peptides in serial 2-fold dilutions (final concentration between 0.78 and 50 μM). Plates were incubated for 24 h at 37 °C while being agitated. Inhibition of growth was assessed by absorbance measurements at OD600 using a microplate auto reader. The MIC was defined as the concentration at which 90% inhibition of growth was observed after incubation for 24 h.

CF sputum proteases = assay: in vitro; settings: human, supernatant of pooled CF patient sputum, diluted 10-fold
Procedure: (§1) The peptide stability in CF patient sputum was tested as previously described.[52] Briefly, individual sputum samples from CF patients were pooled and diluted 10-fold with Dulbecco’s phosphate-buffered saline without calcium and magnesium. The suspensions were thoroughly mixed and then centrifuged at 1000 rpm for 10 min. D,L-K6L9 peptides and LL-37 were added to the supernatant to a final concentration of 100 μM, and the mixture was incubated at 37 °C for several time intervals. The reaction was stopped by adding 10 μL of 10% hydrogen chloride (HCl) to the 55 μL mixture. Residual peptide concentrations were determined via RP-HPLC on a Vydac C18 column (Grace Discovery Sciences, Deerfield, IL) using a linear gradient from 20% to 60% ACN in water (both containing 0.1% TFA) for 50 min. Data are presented as a percentage of peptide compared to the mixture without incubation ± standard errors.

in vitro = settings: pooled CF patient sputum diluted 10-fold with PBS, supernatant, 100 μM peptide, 37 °C
Procedure: as §1

mammalian cells = settings: cited from earlier work
Source text: We investigated the antibiofilm and antimicrobial activities of a series of peptides containing nine leucines and six lysines each, with a net charge of +7 (Table 1).

[3] = tested on: P. aeruginosa CF isolates and PAO1; assay type: cell-based, Pseudomonas aeruginosa; settings: 10 μM peptide, 1 h, 37 °C
Procedure: The suspensions were thoroughly mixed, centrifuged at 1000 rpm for 10 min, and filtered with a 0.22 μm filter. Supernatants were stored and used for killing assays and fluorescence microscopy, respectively. Then, 10^6 CFU/mL of P. aeruginosa was added to a 10% diluted sputum supernatant, followed by 10 μM peptides. The mixture was incubated at 37 °C for 1 h and then diluted and plated on freshly made LB agar plates.

In the case of `CC(C)C[C@H](NC(=O)[C@H](CC(C)C)NC(=O)[C@@H](CCCCN)NC(=O)[C@H](CC(C)C)NC(=O)[C@H](CC(C)C)NC(=O)[C@H](CCCCN)NC(=O)[C@@H](CCCCN)NC(=O)[C@@H](CC(C)C)NC(=O)[C@H](CC(C)C)NC(=O)[C@@H](CCCCN)NC(=O)[C@H](CCCCN)NC(=O)[C@H](CC(C)C)NC(=O)[C@@H](CC(C)C)NC(=O)[C@H](CCCCN)NC(=O)[C@@H](N)CC(C)C)C(N)=O` (stereo in doubt) [Amp1D], the “inhibition of biofilm formation” value [1] is reported as about 50%, the MIC [2] is reported as at most 3.12 µM and the metabolised at 48 h, 100 μM (CF sputum proteases) is reported as about 30%. The “degradation in CF sputum” value (in vitro; 6 h, RP-HPLC) was “protected entirely from degradation”.
In the case of `CC(C)C[C@H](NC(=O)[C@H](CC(C)C)NC(=O)[C@@H](CC(C)C)NC(=O)[C@@H](CC(C)C)NC(=O)[C@H](CC(C)C)NC(=O)[C@@H](CC(C)C)NC(=O)[C@H](CC(C)C)NC(=O)[C@H](CC(C)C)NC(=O)[C@@H](CCCCN)NC(=O)[C@H](CCCCN)NC(=O)[C@@H](N)CCCCN)C(=O)N[C@@H](CC(C)C)C(=O)N[C@H](CCCCN)C(=O)N[C@@H](CCCCN)C(=O)N[C@@H](CCCCN)C(N)=O` (stereo in doubt) [Seg5D], the metabolised at 48 h, 100 μM (CF sputum proteases) is reported as about 30% and the “degradation in CF sputum” value (in vitro; 6 h, RP-HPLC) is reported as “protected entirely from degradation”.
`CC(C)C[C@H](NC(=O)[C@H](CC(C)C)NC(=O)[C@@H](CC(C)C)NC(=O)[C@H](CC(C)C)NC(=O)[C@H](CCCCN)NC(=O)[C@H](CCCCN)NC(=O)[C@@H](CCCCN)NC(=O)[C@@H](CCCCN)NC(=O)[C@H](CCCCN)NC(=O)[C@@H](CCCCN)NC(=O)[C@H](CC(C)C)NC(=O)[C@H](CC(C)C)NC(=O)[C@@H](CC(C)C)NC(=O)[C@H](CC(C)C)NC(=O)[C@@H](N)CC(C)C)C(N)=O` (stereo in doubt) [Seg6D] gave an MIC [2] of at most 12.5 µM, a metabolised at 24 h, 100 μM (CF sputum proteases) of about 30% and a metabolised at 48 h, 100 μM (CF sputum proteases) of about 30%. For the same molecule, the “degradation in CF sputum” value (in vitro; 6 h, RP-HPLC) was “protected entirely from degradation”.
In the case of `CC(C)C[C@H](NC(=O)[C@H](CC(C)C)NC(=O)[C@H](CCCCN)NC(=O)[C@H](CC(C)C)NC(=O)[C@H](CC(C)C)NC(=O)[C@H](CCCCN)NC(=O)[C@H](CCCCN)NC(=O)[C@H](CC(C)C)NC(=O)[C@H](CC(C)C)NC(=O)[C@H](CCCCN)NC(=O)[C@H](CCCCN)NC(=O)[C@H](CC(C)C)NC(=O)[C@H](CC(C)C)NC(=O)[C@H](CCCCN)NC(=O)[C@@H](N)CC(C)C)C(N)=O` [Amp1L], the metabolised at 3 h, 100 μM (CF sputum proteases) is given as about 70%, the metabolised at 6 h, 100 μM (CF sputum proteases) is given as about 80% and the “toxicity to mammalian cells” value (mammalian cells) is given as “toxic to mammalian cells”.
Molecule `CC[C@H](C)[C@H](NC(=O)[C@H](CCCCN)NC(=O)[C@H](CCC(=O)O)NC(=O)[C@H](CCCCN)NC(=O)[C@H](CO)NC(=O)[C@H](CCCCN)NC(=O)[C@H](CCCNC(=N)N)NC(=O)[C@H](Cc1ccccc1)NC(=O)[C@H](Cc1ccccc1)NC(=O)[C@H](CC(=O)O)NC(=O)CNC(=O)[C@H](CC(C)C)NC(=O)[C@@H](N)CC(C)C)C(=O)NCC(=O)N[C@@H](CCCCN)C(=O)N[C@@H](CCC(=O)O)C(=O)N[C@@H](Cc1ccccc1)C(=O)N[C@@H](CCCCN)C(=O)N[C@@H](CCCNC(=N)N)C(=O)N[C@H](C(=O)N[C@H](C(=O)N[C@@H](CCC(N)=O)C(=O)N[C@@H](CCCNC(=N)N)C(=O)N[C@H](C(=O)N[C@@H](CCCCN)C(=O)N[C@@H](CC(=O)O)C(=O)N[C@@H](Cc1ccccc1)C(=O)N[C@@H](CC(C)C)C(=O)N[C@@H](CCCNC(=N)N)C(=O)N[C@@H](CC(N)=O)C(=O)N[C@@H](CC(C)C)C(=O)N[C@H](C(=O)N1CCC[C@H]1C(=O)N[C@@H](CCCNC(=N)N)C(=O)N[C@H](C(=O)N[C@@H](CCC(=O)O)C(=O)N[C@@H](CO)C(N)=O)[C@@H](C)O)C(C)C)[C@@H](C)CC)C(C)C)[C@@H](C)CC` [LL-37, reference compound] has a killing rate ([3]; PAO1, 10% mixed CF sputum, 10^6 CFU/mL, colony count vs untreated) of 11.48%, a killing rate ([3]; control isolate 895 in 895 CF diluted sputum) of 97.57% and a killing rate ([3]; isolate 24, 10% mixed CF sputum, 10^6 CFU/mL, colony count vs untreated) of 13.23%. The killing rate ([3]; isolate 46, 10% mixed CF sputum, 10^6 CFU/mL, colony count vs untreated) was 11.73%, the killing rate ([3]; isolate 82, 10% mixed CF sputum, 10^6 CFU/mL, colony count vs untreated) was 34.24% and the “degradation in CF sputum” value (in vitro; 30 min, residual peptide by RP-HPLC vs no incubation) was “fully degraded”.
